US20250383339A1, “DESIGN AND APPLICATION OF NOVEL LIGAND-INDUCED SPLIT-PROTEIN SYSTEMS” (ARIZONA BOARD OF REGENTS ON BEHALF OF THE UNIVERSITY OF …, priority 2022, published 2025)
Entries after “also recorded” stand apart in the source; their conditions may differ.

How the values were obtained:
[1] = test system: split-Src controlled by split Bcl-xL; assay: anti-phosphotyrosine western blot of split-Src controlled by split Bcl-xL in HEK293T cells; type: cell-based, human; conditions: for global tyrosine phosphorylation: N-Bcl-xL 1-112 / C-Bcl-XL WT 113-209 split-Src, 10 µM ligand vs DMSO
Description: The most ligand-responsive fragments, N-Bcl-xL 1-112 and C-Bcl-XL WT 113-209, were cloned into existing full-length split-Src constructs. N-Bcl-xL was attached via a 25-residue linker to the N-terminus of N-Src. C-Bcl-XL WT was attached via a 25-residue linker to C-Src Y530F (FIG. 4A). Each split-kinase system was tested in HEK293T cells via transient transfection and treated with either DMSO or 10 µM of Bcl-xL ligands A-1155463, ABT-263, or ABT-737. […] More importantly, this novel CID system can likely be used in combination with the three existing CID systems to generate additional layers of control in cells for controlling pathways with externally added small molecules. For example, a split kinase and a corresponding split phosphatase may be used in conjunction with a split target protein (e.g., as described herein) to examine any given phosphorylation pathway in a cell. In some embodiments, the split target protein may be either upstream or downstream of a phosphorylation cascade (e.g., the split kinase). The aforementioned system would allow precise signaling studies to be undertaken by titration of two or more ligands (e.g., small molecules; e.g., one ligand for each split protein in the system).

[2] = test system: split-Src controlled by the ABI/PYL CID system; assay: anti-phosphotyrosine western blot of split-Src controlled by the ABI/PYL CID system; type: cell-based; conditions: for phosphorylation / kinase activity of ABI/PYL split-Src with CID alone: abscisic acid CID alone
Description: It was hypothesized that there might be off-target kinase inhibition by ABT-263, which is not present in the other ligands tested. To interrogate this potential off-target kinase inhibition, an orthogonal split-Src construct design was employed with ABI and PYL domains and the CID, abscisic acid. The split-Src was tested as fragments without CID, fragments with CID, and fragments with CID plus ABT-263.

[3] = test system: Bcl-xL WT and Bcl-xL R139A; assay: split-luciferase assay, Bcl-xL 209 R139A side-by-side with wild-type parent; type: cell-based, human; conditions: α3-α4 split site, 50 nM ligand, 5 ng of each FLuc construct (FIG. 3)
Description: Low passage (≤25) cells were seeded onto T-75 (Fisher) flasks at 1E6 cells per mL and grown for 24 hours in complete media. Transient transfections were performed using PolyJet (SignaGen). 96-well culture plates were coated with 50 μL/well of 50 μg/mL solution of poly-D-lysine (MilliPore) and incubated at 4C overnight. Cells were transfected for ˜16 h, then were trypsinized and quantified. Cells were plated onto coated 96-well plates at 1E4 cells/well in DMEM supplemented with 0.5% v/v FBS. Treatment was dissolved in DMSO and added to a final DMSO concentration of 0.05% by volume. Cells were grown in treatment media for 24 h before being lysed with an in-house detergent-based buffer. Cell lysis was clarified via centrifugation, and 50 μL of clarified lysate was plated per well on a white U-bottom luminescence plate. 80 μL of L-GLO was added to each well, and the plate was incubated at room temperature for 25-40 minutes before luminescence was read on a Centro XS3 LB960 (Berthold Technologies) microplate luminometer. Separately, clarified lysate was quantified using a Micro-BCA kit (Pierce), and luminescence was normalized to RLU per microgram of total protein using Microsoft Excel. All data presented were plotted using Kaleidagraph (Synergy) 3.5.

[4] = target: Bcl-xL (Homo sapiens, UniProt Q07817); conditions: in the literature; cited from earlier work
[5] = target: T1, Bcl-xL 209 R139A (Homo sapiens, UniProt Q07817, R139A); assay: split-luciferase complementation assay of split Bcl-xL 209 R139A in HEK293T cells; type: cell-based; conditions: split-luciferase signal
T1 construct: expressed in transfected cells; host or cells: HEK293T
Description: (§1) To design split Bcl-xL, a suitable readout was required to measure successful ligand-dependent reassembly. A split-luciferase complementation assay was used, which was originally identified by rapamycin-induced complementation of FKBP and FRB. The split protein constructs were designed such that split-firefly luciferase-dependent luminescence would only be generated upon dimerization of N-Bcl-xL and C-Bcl-xL fragments […] (FIG. 2A). The split-protein constructs were created for each of the Bcl-xL split sites (FIG. 2B) and tested by transient transfection into HEK293T cells with the addition of either a Bcl-xL ligand or DMSO.
Low passage (≤25) cells were seeded onto T-75 (Fisher) flasks at 1E6 cells per mL and grown for 24 hours in complete media. […] Cells were transfected for ˜16 h, then were trypsinized and quantified. […] Cell lysis was clarified via centrifugation, and 50 μL of clarified lysate was plated per well on a white U-bottom luminescence plate. 80 μL of L-GLO was added to each well, and the plate was incubated at room temperature for 25-40 minutes before luminescence was read on a Centro XS3 LB960 (Berthold Technologies) microplate luminometer. Separately, clarified lysate was quantified using a Micro-BCA kit (Pierce), and luminescence was normalized to RLU per microgram of total protein using Microsoft Excel. […]

[6] = target: T2, C-Bcl-XL WT 113-209 split-firefly-luciferase fusion (human, UniProt Q07817 113-209); assay: split-luciferase complementation in HEK293T cells, reassembly induced by ABT-263
T2 construct: not shown: split firefly luciferase half (NFluc or CFluc) with any linker
Description: Fold change is indicated as a measure of small-molecule dependence of the luminescence.
as §1

T2 sequence (Q07817 113-209): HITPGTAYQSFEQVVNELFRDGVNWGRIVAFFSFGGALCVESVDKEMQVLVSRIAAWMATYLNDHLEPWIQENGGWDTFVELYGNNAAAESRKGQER
T1 sequence (Q07817 113-209 R139A, one chain of several): as the sequence (Q07817 113-209) above, with R27A counted along it
Chain of Bcl-xL (Q07817 whole entry): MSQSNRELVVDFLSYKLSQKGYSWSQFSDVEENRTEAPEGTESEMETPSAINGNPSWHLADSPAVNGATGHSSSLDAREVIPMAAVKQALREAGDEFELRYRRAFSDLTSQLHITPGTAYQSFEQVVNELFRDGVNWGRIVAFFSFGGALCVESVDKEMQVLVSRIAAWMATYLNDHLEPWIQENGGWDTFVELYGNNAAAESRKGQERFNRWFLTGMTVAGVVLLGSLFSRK

CC1(C)CCC(c2ccc(Cl)cc2)=C(CN2CCN(c3ccc(C(=O)NS(=O)(=O)c4ccc(N[C@H](CCN5CCOCC5)CSc5ccccc5)c(S(=O)(=O)C(F)(F)F)c4)cc3)CC2)C1 [ABT-263]
global tyrosine phosphorylation [1]: significant increases in global tyrosine phosphorylation
intensity of induced phosphorylation compared to A-1155463 and ABT-737 ([1]; split-Src controlled by split Bcl-xL): lower intensity of induced phosphorylation
phosphorylation / kinase turn-on of ABI/PYL split-Src on addition of ABT-263 with abscisic acid ([2]; fragments with abscisic acid CID plus ABT-263): lesser amount of kinase turn-on; also recorded: phosphorylation is slightly decreased
split-luciferase signal, difference between Bcl-xL WT and R139A in ligand-induced reassembly [3]: respond similarly; also recorded: no significant difference

CC1=CC(=O)CC(C)(C)[C@@]1(O)/C=C/C(C)=C\C(=O)O [abscisic acid]
phosphorylation / kinase activity of ABI/PYL split-Src with CID alone [2]: strong phosphorylation
phosphorylation / kinase activity of ABI/PYL split-Src with CID alone ([2]; listed as ABA): turns the kinase activity on

CN(C)CC[C@H](CSc1ccccc1)Nc1ccc(S(=O)(=O)NC(=O)c2ccc(N3CCN(Cc4ccccc4-c4ccc(Cl)cc4)CC3)cc2)cc1[N+](=O)[O-] [ABT-737]
global tyrosine phosphorylation [1]: significant increases in global tyrosine phosphorylation

CN(C)CC#Cc1ccc(OCCCc2sc(N3CCc4cccc(C(=O)Nc5nc6ccccc6s5)c4C3)nc2C(=O)O)c(F)c1 [A-1155463]
global tyrosine phosphorylation [1]: significant increases in global tyrosine phosphorylation
binding affinity to Bcl-xL [4]: sub-nanomolar
split-luciferase signal, difference between Bcl-xL WT and R139A in ligand-induced reassembly [3]: preferential binding for wild-type C-Bcl-XL 113-209 over the R139A mutant
ligand-induced reassembly (induced dimerization) of Bcl-xL 209 R139A [5]: did not induce significant reassembly

B1: N-Bcl-xL 1-112 split-firefly-luciferase fusion (α3-α4 split site) (other)
chain: MEDAKNIKKGPAPFYPLEDGTAGEQLHKAMKRYALVPGTIAFTDAHIEVNITYAEYFEMSVRLAEAMKRYGLNTNHRIVVCSENSLQFFMPVLGALFIGVAVAPANDIYNERELLNSMNISQPTVVFVSKKGLQKILNVQKKLPIIQKIIIMDSKTDYQGFQSMYTFVTSHLPPGFNEYDFVPESFDRDKTIALIMNSSGSTGLPKGVALPHRTACVRFSHARDPIFGNQIIPDTAILSVVPFHHGFGMFTTLGYLICGFRVVLMYRFEEELFLRSLQDYKIQSALLVPTLFSFFAKSTLIDKYDLSNLHEIASGGAPLSKEVGEAVAKRFHLPGIRQGYGLTETTSAILITPEGDDKPGAVGKVVPFFEAKVVDLDTGKTLGVNQRGELCVRGPMIMSGYVNNPEATNALIDKDGCGRGGSGGGGSGGGGSVDGGSGGQLDIMSQSNRELVVDFLSYKLSQKGYSWSQFSDVEENRTEAPEGTESEMETPSAINGNPSWHLADSPAVNGATGHSSSLDAREVIPMAAVKQALREAGDEFELRYRRAFSDLTSQL
notes: Expressed by transient transfection in HEK293T cells; also called N-Bcl-xL (aa 1-112)
binding result [6]: binds
